This assay has as its target T1, VIP peptides (Rattus norvegicus, UniProt P01283).
T1 sequence (P01283 whole entry): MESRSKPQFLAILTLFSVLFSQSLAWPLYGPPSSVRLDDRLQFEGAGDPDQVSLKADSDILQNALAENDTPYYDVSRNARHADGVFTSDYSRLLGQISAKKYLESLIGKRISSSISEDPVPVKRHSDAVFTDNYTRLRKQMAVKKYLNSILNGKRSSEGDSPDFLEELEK

Square brackets hold non-standard residues; d marks the D form. Peptide text beside a SMILES is read from it. ξ: configuration not given here. Ile(3ξ) = CCC(C)[C@H](N)C(=O)O

With `CC[C@H](C)[C@H](NC(=O)[C@H](CO)NC(=O)[C@H](CC(N)=O)NC(=O)[C@H](CC(C)C)NC(=O)[C@H](Cc1ccc(O)cc1)NC(=O)[C@H](CCCCN)NC(=O)[C@H](CCCCN)NC(=O)[C@@H](NC(=O)[C@H](C)NC(=O)[C@H](CCSC)NC(=O)[C@H](CCC(N)=O)NC(=O)[C@H](CCCCN)NC(=O)[C@H](CCCN=C(N)N)NC(=O)[C@H](CC(C)C)NC(=O)[C@H](CCCN=C(N)N)NC(=O)[C@@H](NC(=O)[C@H](Cc1ccc(O)cc1)NC(=O)[C@H](CC(N)=O)NC(=O)[C@H](CC(=O)O)NC(=O)[C@@H](NC(=O)[C@H](Cc1ccccc1)NC(=O)[C@@H](NC(=O)[C@H](C)NC(=O)[C@H](CC(=O)O)NC(=O)[C@H](CO)NC(=O)[C@@H](N)Cc1ccccc1)C(C)C)[C@@H](C)O)[C@@H](C)O)C(C)C)C(=O)N[C@@H](CC(C)C)C(=O)N[C@@H](CC(N)=O)C(N)=O` [[Phe1]VIP] (H-FSDAVFTDNYTRLRKQMAVKKYLNSILN-NH2), affinity was put at a Ki of 0.03 µM.
The figure for `CC[C@H](C)[C@H](NC(=O)CNC(=O)[C@H](CCC(=O)O)NC(=O)[C@H](CO)NC(=O)[C@@H](N)Cc1cnc[nH]1)C(=O)N[C@@H](Cc1ccccc1)C(=O)N[C@H](C(=O)N[C@@H](CC(=O)O)C(=O)N[C@@H](CO)C(=O)N[C@@H](Cc1ccc(O)cc1)C(=O)N[C@@H](CO)C(=O)N[C@@H](CCCNC(=N)N)C(=O)N[C@@H](Cc1ccc(O)cc1)C(=O)N[C@@H](CCCNC(=N)N)C(=O)N[C@@H](CCCCN)C(=O)N[C@@H](CCC(N)=O)C(=O)N[C@@H](CCSC)C(=O)N[C@@H](C)C(=O)N[C@H](C(=O)N[C@@H](CCCCN)C(=O)N[C@@H](CCCCN)C(=O)N[C@@H](Cc1ccc(O)cc1)C(=O)N[C@@H](CC(C)C)C(=O)N[C@@H](C)C(=O)N[C@@H](C)C(=O)N[C@H](C(=O)N[C@@H](CC(C)C)C(N)=O)C(C)C)C(C)C)[C@@H](C)O` [PACAP(1-27)] is 0.002 µM.
The figure for `CC[C@H](C)[C@H](NC(=O)[C@H](CO)NC(=O)[C@H](CC(N)=O)NC(=O)[C@H](CC(C)C)NC(=O)[C@H](Cc1ccc(O)cc1)NC(=O)[C@H](CCCCN)NC(=O)[C@H](CCCCN)NC(=O)[C@@H](NC(=O)[C@H](C)NC(=O)[C@H](CCSC)NC(=O)[C@H](CCC(N)=O)NC(=O)[C@H](CCCCN)NC(=O)[C@H](CCCN=C(N)N)NC(=O)[C@H](CC(C)C)NC(=O)[C@H](CCCN=C(N)N)NC(=O)[C@@H](NC(=O)[C@H](Cc1ccc(O)cc1)NC(=O)[C@H](CC(N)=O)NC(=O)[C@H](CC(=O)O)NC(=O)[C@@H](NC(=O)[C@H](Cc1ccccc1)NC(=O)[C@@H](NC(=O)[C@H](C)NC(=O)[C@H](CC(=O)O)NC(=O)[C@H](CO)NC(=O)[C@H](N)Cc1cnc[nH]1)C(C)C)[C@@H](C)O)[C@@H](C)O)C(C)C)C(=O)N[C@@H](CC(C)C)C(=O)N[C@@H](CC(N)=O)C(N)=O` [VIP [D-His1]] is 0.2 µM; for `CCC(C)[C@H](NC(=O)CN)C(=O)N[C@@H](Cc1ccccc1)C(=O)N[C@H](C(=O)N[C@@H](CC(=O)O)C(=O)N[C@@H](CO)C(=O)N[C@@H](Cc1ccc(O)cc1)C(=O)N[C@@H](CO)C(=O)N[C@@H](CCCN=C(N)N)C(=O)N[C@@H](Cc1ccc(O)cc1)C(=O)N[C@@H](CCCN=C(N)N)C(=O)N[C@@H](CCCCN)C(=O)N[C@@H](CCC(N)=O)C(=O)N[C@@H](CCSC)C(=O)N[C@@H](C)C(=O)N[C@H](C(=O)N[C@@H](CCCCN)C(=O)N[C@@H](CCCCN)C(=O)N[C@@H](Cc1ccc(O)cc1)C(=O)N[C@@H](CC(C)C)C(=O)N[C@@H](C)C(=O)N[C@@H](C)C(=O)N[C@H](C(=O)N[C@@H](CC(C)C)C(N)=O)C(C)C)C(C)C)[C@@H](C)O` (stereo partly specified) [PACAP(4-27)] (H-G[Ile(3ξ)]FTDSYSRYRKQMAVKKYLAAVL-NH2) it is 0.8 µM.
Turning to `CC[C@H](C)[C@H](NC(=O)[C@H](CO)NC(=O)[C@H](CC(N)=O)NC(=O)[C@H](CC(C)C)NC(=O)[C@H](Cc1ccc(O)cc1)NC(=O)[C@H](CCCCN)NC(=O)[C@H](CCCCN)NC(=O)[C@@H](NC(=O)[C@H](C)NC(=O)[C@H](CCSC)NC(=O)[C@H](CCC(N)=O)NC(=O)[C@H](CCCCN)NC(=O)[C@H](CCCN=C(N)N)NC(=O)[C@H](CC(C)C)NC(=O)[C@H](CCCN=C(N)N)NC(=O)[C@@H](NC(=O)[C@H](Cc1ccc(O)cc1)NC(=O)[C@H](CC(N)=O)NC(=O)[C@H](CC(=O)O)NC(=O)[C@@H](NC(=O)[C@H](Cc1ccccc1)NC(=O)[C@@H](NC(=O)[C@H](C)NC(=O)[C@H](CC(=O)O)NC(=O)[C@@H](N)CO)C(C)C)[C@@H](C)O)[C@@H](C)O)C(C)C)C(=O)N[C@@H](CC(C)C)C(=O)N[C@@H](CC(N)=O)C(N)=O` [VIP(2-28)] (H-SDAVFTDNYTRLRKQMAVKKYLNSILN-NH2), affinity was put at a Ki of 0.2 µM. Against the preceding molecule, the Ki is about 4-fold lower.
`CC[C@H](C)[C@H](NC(=O)CNC(=O)[C@H](CC(=O)O)NC(=O)[C@H](CO)NC(=O)[C@@H](N)Cc1ccccc1)C(=O)N[C@@H](Cc1ccccc1)C(=O)N[C@H](C(=O)N[C@@H](CC(=O)O)C(=O)N[C@@H](CO)C(=O)N[C@@H](Cc1ccc(O)cc1)C(=O)N[C@@H](CO)C(=O)N[C@@H](CCCN=C(N)N)C(=O)N[C@@H](Cc1ccc(O)cc1)C(=O)N[C@@H](CCCN=C(N)N)C(=O)N[C@@H](CCCCN)C(=O)N[C@@H](CCC(N)=O)C(=O)N[C@@H](CCSC)C(=O)N[C@@H](C)C(=O)N[C@H](C(=O)N[C@@H](CCCCN)C(=O)N[C@@H](CCCCN)C(=O)N[C@@H](Cc1ccc(O)cc1)C(=O)N[C@@H](CC(C)C)C(=O)N[C@@H](C)C(=O)N[C@@H](C)C(=O)N[C@H](C(=O)N[C@@H](CC(C)C)C(N)=O)C(C)C)C(C)C)[C@@H](C)O` [[Phe1]PACAP(1-27)] had a Ki of 0.3 µM.

These data come from BindingDB's records for doi:10.1016/0167-0115(94)90537-1 (Universit&Eacute, 1994).
